The text below walks through data of patent US7064120B2, “Tricyclic pyridyl carboxamides and derivatives thereof tocolytic oxytocin receptor antagonists” (Wyeth, priority 2001, dated 2006).

The assay has as its target T1, human vasopressin V2 receptor subtype (Homo sapiens, UniProt P30518).
T1 construct: host or cells: CHO cells, stably transfected (pZeoSV vector)
As to the kind of experiment: Vasopressin binding in CHO cell membranes expressing human vasopressin V2 subtype receptors ([3H]arginine vasopressin radioligand binding). Particulars: value in parentheses. In a few lines: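 Values are IC50 in nM or percent inhibition at a stated concentration, from scintillation counts after filtration. Binding ran 60 min at room temperature: [3H]arginine vasopressin, human V2-transfected CHO membranes (25 to 50 μg protein/well), pH 7.4 Tris-HCl buffer containing MgCl2, BSA, protease inhibitors.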

T1 sequence (P30518 whole entry): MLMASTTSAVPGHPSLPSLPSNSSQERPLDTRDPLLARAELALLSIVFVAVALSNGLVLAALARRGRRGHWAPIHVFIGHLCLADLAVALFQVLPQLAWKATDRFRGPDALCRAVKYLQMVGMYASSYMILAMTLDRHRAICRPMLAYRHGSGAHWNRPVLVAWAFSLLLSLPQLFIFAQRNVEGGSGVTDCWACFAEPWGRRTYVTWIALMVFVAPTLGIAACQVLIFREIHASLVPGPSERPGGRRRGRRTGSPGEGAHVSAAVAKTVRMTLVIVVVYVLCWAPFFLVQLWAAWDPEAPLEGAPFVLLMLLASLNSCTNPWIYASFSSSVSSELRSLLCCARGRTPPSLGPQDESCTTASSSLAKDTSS

Usually IC50 stands for the concentration at which inhibition is half-maximal. For the compound `COc1ccccc1-c1ccc(C(=O)N2Cc3ccc(C(=O)N4CCN(c5ccncc5)CC4)n3Cc3ccccc32)cc1C` [Example 113, {10-[(2′-Methoxy-2-methyl-[1,1′-biphenyl]-4-yl)carbonyl]-10,11-dihydro-5H-pyrrolo[2,1-c][1,4]benzodiazepin-3-yl}[4-(4-pyridinyl)-1-piperazinyl]methanone], the IC50 stood at 545 nM.
